Measured values: US10369158B2, “Pharmaceutical packaging for estriol therapy” (The Regents of the University of California, priority 2014, dated 2019)

Assays:
Format in all cases: in vivo, human
[1] = test system: multiple sclerosis; assay: Expanded Disability Status Scale (EDSS)
Excerpt: (§1) Patients also underwent mammograms before and after the study.
The Expanded Disability Status Scale (EDSS) is a standard composite disability score used in MS trials. Higher scores indicate worse disability. This composite covers a variety of disabilities (including ambulation, vision, cognition, coordination, etc.), but scoring is not linear, and the composite score is understood to be principally an indicator of the level of disability in ambulation.

[2] = test system: multiple sclerosis; assay: Paced Auditory Serial Addition Test (PASAT) cognitive disability assessment; details: month 12 to month 24
Excerpt: as §1
Next it was shown that the improvement in PASAT cognitive test scores was sustained when subjects were followed for the entire 24 month period, p=0.02 (FIG. 3).

[3] = test system: multiple sclerosis; assay: Brain MRI gadolinium enhancing lesions; details: at month 12 compared to month 0 baseline, p=0.14
Excerpt: as §1
Brain MRI is used extensively in MS as a surrogate marker for clinical effects. Brain white matter gadolinium enhancing lesions are a biomarker for relapses.

[4] = test system: multiple sclerosis; assay: Timed 25-foot walk test; details: between-group difference p=0.02
Excerpt: as §1
Another clinical disability measure with treatment effects was the timed 25-foot walk test. This test measures how many seconds it takes to walk 25 feet, with higher scores indicating worse disability. […] This beneficial effect of estriol treatment on 25 foot walking times is consistent with the beneficial effect of estriol treatment on EDSS scores since the latter is weighted toward being an indicator of ambulation.

[5] = Safety and tolerability in randomized, double-blind, placebo-controlled clinical trial (gynecological outcomes, mammograms)
Excerpt: as §1
Baseline characteristics were similar in both patient groups.

[6] = 24-month treatment, Copaxone with estriol or placebo

Substance: glatiramer acetate [Copaxone® plus placebo]
- Change in EDSS scores ([1]; 24 months (FIG. 4)): no change
- EDSS scores over 24 months, slope ([1]; FIG. 4, p=0.06 estriol group, p=0.90 placebo group): −0.01
- PASAT scores after 12 months to end of study [2]: began to show improved PASAT scores
- Reduction in number of subjects with brain MRI scans positive for enhancing lesions [3]: 22%
- Change of walk time in timed 25-foot walk test [4]: significantly increased
- Abnormal proliferation in uterine endometrial biopsies [5, 6]: no
- Breast - Fibrocystic breast disease on clinical exam [5, 6]: 4 subjects
- Uterine endometrial biopsies (exams) [5, 6]: 10 exams
- Uterine endometrial thickness > 8 mm on ultrasound (subjects) [5, 6]: 27 subjects
- Mammograms ([5]; before and after the study): No breast
- Uterine fibroids on ultrasound ([5]; women with MS, 24-month treatment, Copaxone 20 mg/day with oral estriol 8 mg/day or placebo, norethindrone 0.7 mg/day for 14 days every three months): 8 subjects
